Reference: patent US12018278B2, “Methods for chemically induced lineage reprogramming” (BeiHao Stem Cell and Regenerative Medicine Research …, priority 2017, dated 2024)

How the values were obtained:
[1] = test system: induced TauEGFP-positive cells; assay: Whole-cell patch clamp recordings on induced TauEGFP-positive neurons; type: cell-based, mouse; conditions: for spontaneous excitatory postsynaptic currents (EPSCs): 20 μM CNQX plus 50 μM AP5, after co-culturing with primary astrocytes
Procedure: Whole-cell patch clamp recordings were performed as previously described (Li et al., Cell Stem Cell, 17:195-203 (2015)). The artificial cerebrospinal fluid extracellular solution contained (in mM) 141 NaCl, 2.5 KCl, 1.3 MgCl2, 2.4 CaCl2, 1.25 NaH2PO4, 10 glucose and 10 HEPES, the pH was adjusted to 7.4 with NaOH. Patch pipettes were pulled (˜5 MΩ tip resistance) with a P97 micropipette puller (Sutter Instruments) filled with internal pipette solution contained (in mM) 140 potassium gluconate, 1 CaCl2, 10 EGTA, 2 MgCl2, 5 Na2ATP, and 10 HEPES, the pH was adjusted to 7.4 with KOH. Patch-clamp recordings were taken using an EPC-10 amplifier (HEKA) with PatchMaster. Cell membrane potentials were held typically at −80 mV and depolarized to test potentials from −80 to +80 mV in 10 mV increments to record the sodium and potassium currents. The sample was 20 μs and sweep intervals were 2 s. For current-clamp recordings, a hyperpolarized current was injected into chemical neurons to membrane potentials around −70 mV. Action potentials were elicited by step-depolarized currents with sweep intervals of 3 s. The cells were held at 0 pA to record the resting membrane potentials. In current-clamp mode, the sample frequency was 25 kHz. Induced neurons identified by GFP were co-cultured with mouse primary astrocytes to record spontaneous excitatory postsynaptic currents (sEPSCs) or spontaneous inhibitory postsynaptic currents (sIPSCs). The induced neurons were held at a holding potential of −70 mV (close to the reversal potential of chloride) and 0 mV, respectively. The data were continuously digitized at 20 kHz. For neurotransmitter response, Glutamate (100 μM, Sigma-Aldrich) was dissolved in ACSF, loaded into a pipette, and puffed onto hciN cells using a picosprizer III (Parker Instrument) with 10 psi and […]. All recordings were conducted at room temperature.

[2] = test system: mouse adult lung fibroblasts (MAFs); assay: Induction of XEN-like cells from adult fibroblasts; type: cell-based; conditions: vitamin C (50 μg/ml) and CH55 (1 μM) added together to stage 1 medium; 12 days' induction
Procedure: (§1) Stage 1 culture medium preparation: KnockOut DMEM (Invitrogen) supplemented with 10% KSR (Invitrogen), 10% FBS (Pan-Biotech), 1% GlutaMAX™-I (Invitrogen), 1% NEAA (Invitrogen), 0.055 mM β-ME (Sigma), 1% penicillin-streptomycin (Invitrogen), 100 ng/ml bFGF (Origene) containing the small-molecule cocktail: 0.5 mM VPA, 2-4 μM TD114-2 or 20 μM CHIR, 10 μM 616452, 10 μM Tranylcypromine, 10-50 μM Forskolin, 0.05 μM AM580 and 5 μM EPZ004777 (VT6TFAE or VC6TFAE).

CeXEN cells = assay: Toxicity to CeXEN cells in stage 2 neural induction medium; type: cell-based, mouse; conditions: 50 μM
Procedure: CeXEN (chemically-derived eXEN) cells with TauEGFP reporter were derived from E3.5 blastocysts using stage 1 culture medium as previously reported (Zhao et al., Cell, 163:1678-1691 (2015)). Medium was changed every day and the cells were passaged at 1:20 to 1:30 every 3 days.
1. For chemical induction, CeXEN cells were plated at 50,000-100,000 cells per well of a 6-well plate (with gelatin-coated) in stage 1 medium (day 0).
2. On day2 or day3 until 70-80% confluence, cells were switched into stage 2 neural induction culture medium for 12-20 days and TauEGFP-positive cells were generated.
A relatively low initial cell density is beneficial for lineage induction from passaged CeXEN cells since the high proliferation rate of CeXEN cells. Considering that FSK used at high concentration 50 μM was toxic to CeXEN cells at stage 2, a concentration of 10-20 μM in neural induction culture medium on CeXEN cells is preferred.

passaged XEN-like cells = assay: Toxicity to passaged XEN-like cells in stage 2 neural induction medium; type: cell-based, mouse; conditions: 50 μM
Procedure: For neural induction from passaged XEN-like cells, cells were plated at 50,000-100,000 cells per well of a 6-well plate (with gelatin-coated) in stage 1 medium (day 0). Until passaged cells become 70-80% confluence on day2 or day3, switch the XEN-like cells into stage 2 neural induction medium. After 12-20 days, TauEGFP-positive colonies emerged. Considering that FSK used at high concentration 50 μM was toxic to passaged XEN-like cells at stage 2, a concentration of 10-20 μM in neural induction culture medium on passaged XEN-like cells is preferred.

XEN-like cells [3] = assay: Stage 2 neural induction of TauEGFP-positive cells from XEN-like cells (FACS); type: cell-based, mouse; conditions: 0.1 μM LDN193189 and 5 μM SB431542 added to FCD; not essential to induce neurons
Procedure: On day 12, cells were switched into stage 2 neural specification medium. After 8-12 days induction by the stage 2 culture medium, TauEGFP-positive colonies were generated. The TauEGFP-positive colonies were further re-plated to co-culture with primary astrocytes or primary neurons for maturation.
The induced efficiency of the TauEGFP-positive cells was estimated using a FACS Calibur flow cytometer (Becton Dickinson), and the flow cytometry data were analyzed using FlowJo. For intracellular flow cytometry analyses, single-cell suspensions were stained with antibodies and analyzed using a BD FACSCalibur.

fibroblasts = assay: Stage 1 chemical induction of XEN-like primary colonies from fibroblasts; type: cell-based, mouse; conditions: replacing CHIR99021 with TD114-2 in the seven-compound cocktail; XEN-like state not altered
Procedure: as §1, with “VC6TFAE). For mouse adult lung fibroblasts (MAFs) induction, 1 μM CH55 and 50 μg/ml Vitamin C (VC) were added enhance the induction efficiency.” for “VC6TFAE).”
TauEGFP fibroblasts were prepared as previously reported (Li et al., Cell Stem Cell, 17:195-203 (2015)). Fibroblasts were seeded at a density of 30,000-50,000 cells per well of a 6-well plate or 300,000 cells per 100 mm dish (day −1) (Fibroblast medium−DMEM basal medium+10% FBS++beta-Me(0.055 mM)+1% PS). The culture plates or dishes were precoated with 0.1% gelatin.
The medium was changed to Stage 1 culture medium (Day 0). For stage 1 chemical reprogramming, cells were induced by the culture medium containing 0.5 mM VPA, 2-4 μM TD114-2 or 20 μM CHIR, 10 μM 616452, 10 μM Tranylcypromine, 10-50 μM Forskolin, 0.05 μM AM580 and 5 μM EPZ004777(VT6TFAE or VC6TFAE)) for 12 days. Culture medium was refreshed every 4 days during the inducing period. XEN-like colonies were formed at about day 6-8.

XEN-like colonies = assay: Long-term passaging and expansion of XEN-like cells; type: cell-based, mouse; conditions: TD114-2 based culture condition; ratio 1:20-30 every 3-4 days
From the text: Day 12 induced)(EN-like colonies (P0) were trypsinized from whole well and re-plated onto gelatin-coated culture plates at a ratio of 1:10-20 in stage 1 medium for the first passage. After the)(EN-like cells at Passage 1 become confluence, passage the cells at a ratio of 1:20-30 every 3-4 days in stage 1 medium. The XEN-like cells can be long term expanded at stage 1 medium for more than 20 passages with lineage specifying potentials.
For a single primary XEN-like colony passaging, feeder layers of mitomycin C-treated MEFs are needed. Pick up the a single primary XEN-like colony with 1 ml syringe, trypsinize for 5 min, and neutralize with stage 1 culture medium, then pipette up and down to obtain a single-cell suspension. Seed the cell suspension on feeder layers with stage 1 culture medium for further expansion. The subsequent passaging of XEN-like cells can be feeder-free.

XEN-like cells [4] = assay: qRT-PCR of neural, fibroblast and XEN genes in the absence of single Stage 2 medium components; type: cell-based, mouse; conditions: genes examined in the absence of the factor; FIG. 1F

For NC(CCCP(=O)(O)O)C(=O)O (stereo not shown) [AP5, 2-amino-5-phosphonovaleric acid], the “spontaneous excitatory postsynaptic currents (EPSCs)” value [1] was “blocked”.

CC(C)(C)c1cc(C(=O)/C=C/c2ccc(C(=O)O)cc2)cc(C(C)(C)C)c1 [CH55] was tested, and the “efficiency of generating XEN-like cells from adult fibroblasts” value [2] was “significantly improved”.

With N#Cc1cc2[nH]c(=O)c(=O)[nH]c2cc1[N+](=O)[O-] [CNQX, 6-cyano-1007-nitroquinoxaline-2,3-dione] the “spontaneous excitatory postsynaptic currents (EPSCs)” value [1] was “blocked”.

C=C[C@@]1(C)CC(=O)[C@]2(O)[C@@]3(C)[C@@H](O)CCC(C)(C)[C@@H]3[C@H](O)[C@H](OC(C)=O)[C@@]2(C)O1 [Forskolin] was tested, and the “toxicity to CeXEN cells at stage 2” value (CeXEN cells) was “toxic” and the “toxicity to passaged XEN-like cells at stage 2” value (passaged XEN-like cells) was “toxic”.

With N[C@@H](CCC(=O)O)C(=O)O [Glutamate] the “membrane currents on focal application” value ([1]; 100 μM, focal application) was “induction of inward membrane currents”.

In the case of c1ccc2c(-c3cnn4cc(-c5ccc(N6CCNCC6)cc5)cnc34)ccnc2c1 [LDN193189, 4-(6-(4-(piperazin-1-yl)phenyl)pyrazolo[1,5-a]pyrimidin-3-yl)quinolone], the “effect on neuron induction efficiency in stage 2 medium” value (XEN-like cells [3]) is reported as “favorable to enhance the induction efficiency”.

With NC(=O)c1ccc(-c2nc(-c3ccc4c(c3)OCO4)c(-c3ccccn3)[nH]2)cc1 [SB431542, 4-[4-(1,3-benzodioxol-5-yl)-5-(2-pyridinyl)-1H-imidazol-2-yl]benzamide] the “effect on neuron induction efficiency in stage 2 medium” value (XEN-like cells [3]) was “favorable to enhance the induction efficiency”.

For O=C1NC(=O)C2=C1c1cn(c3ccccc13)CCOCCOCCOCCOCCn1cc2c2ccccc21 [TD114-2, 10,11,13,14,16,17,19,20,22,23-decahydro-9,4:24, 29-dimetheno-1H-dibenzo[n,t] pyrrolo[3,4-q] [1,4,7,10,13,22]-tetraoxadiazacyclotetracosine-31,33(32H) dione], the “yield of the primary colonies, enhancement” value (fibroblasts) was 3 fold and the “long term expansion of XEN-like colonies, passages tested” value (XEN-like colonies) was “at least 20 passages”.

In the case of NC1=N[C@H](O)[C@H]2[C@H]3O[C@]4(O)O[C@@H]([C@@H](O)[C@@]2(N1)[C@@H]4O)[C@]3(O)CO [TTX, tetrodotoxin], the “sodium currents (inward currents, voltage-clamp)” value [1] is reported as “blocked”.

O=C1O[C@H]([C@@H](O)CO)C(O)=C1O [vitamin C] was tested, and the “efficiency of generating XEN-like cells from adult fibroblasts” value [2] was “significantly improved”.

B1: GDNF: growth factor in Stage 2 neural induction medium, 20 ng/ml (protein, UniProt P39905 78-211, looked up)
Glial cell line-derived …: SPDKQMAVLPRRERNRQAAAANPENSRGKGRRGQRGKNRGCVLTAIHLNVTDLGLGYETKEELIFRYCSGSCDAAETTYDKILKNLSRNRRLVSDKVGQACCRPIAFDDDLSFLDDNLVYHILRKHSAKRCGCI
For B1, the “role of the stage 2 medium component for neural-, fibroblast- and XEN-specific gene expression” value (XEN-like cells [4]) was “important for inducing neuronal mater and functional genes”.
